Experimental data published in US20150164930A1, “USE OF ARGINASE INHIBITORS IN THE TREATMENT OF ASTHMA AND ALLERGIC RHINITIS” (RIJKSUNIVERSITEIT GRONINGEN, priority 2006, published 2015).

How the values were obtained:
Assay type in all cases: in vivo
[1] = tested on: guinea pig model of allergic asthma (ovalbumin-sensitized); test: Prevention of allergen-induced AHR by pretreatment, animals challenged with increasing allergen doses until obstruction (protection protocol)
Description: (§1) Outbred male specified pathogen free Dunkin Hartley guinea pigs (Harlan Heathfield, UK) were used in this example. All animals, weighing approximately 250 g, were actively IgE-sensitized to ovalbumin as described by Van Amsterdam et al. [Agents Actions 1989, 26:48-51]. The animals were operated on 2 weeks after sensitization and used experimentally in weeks 4 and 5 after sensitization. The animals were housed in individual cages in climate controlled animal quarters and given water and food ad libitum, while a 12 h on/12 h off light cycle was maintained. All protocols described in this study were approved by the University of Groningen Committee for Animal Experimentation.
(§2) Airway function was assessed by on-line measurement of pleural pressure (Ppl) under unrestrained conditions as described previously [Santing et al., Pulm Pharmacol 1992, 5:265-272; Meurs et al., Nature Protocols 2006, 1:840-847].
(§3) In short, a small fluid filled latex balloon catheter was surgically implanted inside the thoracic cavity. The free end of the catheter was driven subcutaneously to the neck of the animal, where it was exposed and attached permanently. Via an external fluid filled cannula, the pleural balloon catheter was connected to a pressure transducer (TXX R, Viggo-Spectramed, Bilthoven, Netherlands). Ppl (in cm H2O) was measured continuously using an on-line computer system.
(§4) Allergen and histamine provocations were performed by inhalation of aerosolized solutions. These provocations were carried out in a specially designed perspex cage of 9 l, in which the guinea pigs could move freely as previously described [Santing et al.; Meurs et al., both supra]. A DeVilbiss nebulizer (type 646) driven by an airflow of 8 l/min provided the aerosol with an output of 0.33 ml/min. The animals were habituated to the experimental conditions and the provocations procedure at least one week after surgery, when preoperative weight was restored, as described previously [Meurs et al, supra].
(§5) On the experimental days following the habituation procedure, allergen and/or histamine provocations were performed as described below. All provocations were preceded by an adaptation period of at least 30 min, followed by two consecutive control provocations with saline, each provocation lasting 3 min and separated by 7 min intervals. A baseline Ppl value was calculated by averaging the Ppl values from the last 20 min of the adaptation period.
(§6) In order to assess the airway reactivity for histamine, provocations with increasing concentration steps (6.25, 12.5, 25, 50, 75, 100 and 125 μg/ml) in saline were performed. Histamine provocations lasted 3 min and were separated by 7 min intervals. Animals were challenged until Ppl was increased by more than 100% above baseline for at least 3 consecutive minutes. The concentration of histamine causing a 100% increase of Ppl (PC 100) was derived by linear interpolation of the concentration Ppl curve and was used as an index for airway reactivity towards histamine. Ppl returned to baseline within 15 min after the last histamine provocation.
(§7) Allergen provocations were performed by inhalation of increasing concentrations of 0.5, 1.0 or 3.0 mg/ml ovalbumin in saline and were discontinued when the first signs of respiratory distress were observed and an increase in Ppl of more than 100% was reached.
On the first experimental day, the basal histamine PC100 was assessed. The next day, saline was inhaled for 15 min, 0.5 h prior to and at 8 h after allergen inhalation, and histamine PC100 measurements were performed 6 and 24 h post allergen challenge. One week later, the same protocol was repeated with inhalations of either 25 mM ABH (nebulizer concentration) or saline at t=−0.5 and 8 h. All animals were challenged with increasing doses of allergen (0.5, 1 and 3 mg/ml) until obstruction. […]

[2] = tested on: guinea pig model of allergic asthma (ovalbumin-sensitized, airway responsiveness to inhaled histamine); test: Reversal of allergen-induced AHR in guinea pig model of allergic asthma (reversion protocol); settings: for effect on allergen-induced AHR after the EAR (histamine PC100): inhalation at 5.5 h after ovalbumin; for effect on allergen-induced AHR after the EAR (histamine PC100) / effect on allergen-induced AHR after the LAR (histamine PC100) / effect on basal airway responsiveness to inhaled histamine (PC100): ABH 25 mM, L- or D-arginine 1 M nebulizer concentration; for effect on allergen-induced AHR after the LAR (histamine PC100): inhalation at 23.5 h after ovalbumin; for effect on basal airway responsiveness to inhaled histamine (PC100): inhaled 15 min, PC100 30 min before and after inhalation
Description: as §1, §2, §3, §4, §5, §6, §7
On two different occasions, separated by one week interval, guinea pigs were treated either with vehicle (saline) or drug (ABH, L-arginine or D-arginine), to establish the acute effects of these drugs on basal airway responsiveness to histamine as well as on allergen-induced airway hyperresponsiveness (AHR) after the EAR and the LAR (FIG. 2).
On the first experimental day, saline- or drug induced effects on basal histamine reactivity were established. Thirty minutes after the assessment of the basal histamine PC100, an aerosol of saline (control) or 25 mM ABH, 1.0 M L-arginine or 1.0 M D-arginine (nebulizer concentrations) was inhaled for 15 min. […]

[3] = tested on: guinea pig model of allergic asthma (ovalbumin-sensitized); test: Prevention of allergen-induced EAR, LAR and AHR by pretreatment, equal allergen dose for both treatment groups (protection protocol, second experiment)
Description: as §1, §2, §3, §4, §5, §6, §7
In a second experiment, animals were challenged once with allergen. On the first experimental day, the basal histamine PC100 was assessed. The next day, animals were pretreated with either saline or ABH (25 mM; nebulizer concentration) 0.5 h before and 8 h after allergen inhalation. The ABH pretreated animals were challenged with the same allergen dose that caused airway obstruction in the saline treated guinea pigs. […]

[4] = ABH 25 mM nebulizer 0.5 h before and 8 h after allergen, equal allergen dose, mean ± SEM

N[C@@H](CCCCB(O)O)C(=O)O [ABH, 2(S)-amino-6-boronohexanoic acid]
protection against the AHR after the EAR as compared to saline control ([1]; 25 mM ABH 0.5 h before allergen challenge): significant protection | allergen-induced AHR after the LAR, PC100 ratio pre/post challenge ([1]; ABH 25 mM nebulizer 0.5 h before and 8 h after allergen, challenged until obstruction, saline control 2.08±0.31-fold, P<0.005): 1.41±0.25 fold | allergen-induced AHR after the EAR, PC100 ratio pre/post challenge ([1]; ABH 25 mM nebulizer 0.5 h before and 8 h after allergen, challenged until obstruction, saline control week 1 6.33±1.30-fold, P<0.05): 3.05±0.51 fold | fold higher ovalbumin needed to induce airways obstruction compared to saline treatment ([1]; ABH week 2 versus saline of the same animals week 1): 32.8 fold | occurrence of AHR after the LAR ([1]; additional inhalation of 25 mM ABH at 8 h after allergen challenge): almost completely prevented | ovalbumin dose needed to induce airways obstruction ([1]; after pretreatment with ABH 25 mM nebulizer in week 2, saline in same animals week 1 0.04±0.01 mg, P<0.01): 1.31 ± 0.69 mg | allergen-induced AHR after the EAR, PC100 ratio pre/post challenge ([2]; after ABH inhalation (25 mM nebulizer) at 5.5 h after ovalbumin, PC100 at 6 h, from 4.77±0.56-fold before inhalation, P<0.001): 2.04±0.34 fold | allergen-induced AHR after the LAR, PC100 ratio pre/post challenge ([2]; after ABH inhalation (25 mM nebulizer) at 23.5 h after ovalbumin, PC100 at 24 h, from 1.95±0.23-fold before inhalation, P<0.10): 1.56±0.47 fold | effect on allergen-induced AHR after the EAR (histamine PC100) [2]: reversed the allergen-induced AHR after the EAR | effect on allergen-induced AHR after the LAR (histamine PC100) [2]: trend towards a reduction | effect on basal airway responsiveness to inhaled histamine (PC100) [2]: without effect | AUC EAR (% change in Ppl time response curve between 0 and 5 h after allergen exposure) [3, 4]: 983 ± 345 % × 5 min | AUC LAR (% change in Ppl time response curve between 8 and 24 h after allergen exposure) [3, 4]: 1697 ± 1043 % × 5 min | initial peak response in Ppl after allergen challenge (allergen-induced acute bronchial obstruction) ([3]; ABH 25 mM nebulizer versus saline at the same allergen dose, P<0.01): highly significant reduction | allergen-induced AHR after the LAR ([3]; equal allergen dose, saline treated 1.68±0.14-fold, P<0.005): 1.02±0.02 fold | allergen-induced AHR after the EAR ([3]; equal allergen dose, saline treated 4.14±0.59-fold, P<0.01): 1.58±0.24 fold | AHR100 (PC100 ratio pre/post allergen challenge) after EAR ([3]; histamine PC100 24 h before and 6 h after allergen, ABH 25 mM nebulizer 0.5 h before and 8 h after allergen, equal allergen dose): 1.58 ± 0.24 | AHR100 (PC100 ratio pre/post allergen challenge) after LAR ([3]; histamine PC100 24 h before and 24 h after allergen, ABH 25 mM nebulizer 0.5 h before and 8 h after allergen, equal allergen dose): 1.02

N=C(N)NCCC[C@@H](N)C(=O)O [D enantiomer of arginine, D-arginine]
effect on allergen-induced AHR after the EAR (histamine PC100) [2]: did not affect | effect on allergen-induced AHR after the LAR (histamine PC100) [2]: did not affect | effect on basal airway responsiveness to inhaled histamine (PC100) [2]: did not affect

N=C(N)NCCC[C@H](N)C(=O)O [L-arginine]
effect on allergen-induced AHR after the EAR (histamine PC100) [2]: reversed to a similar extent as with ABH | effect on allergen-induced AHR after the LAR (histamine PC100) [2]: reversed to a similar extent as with ABH | effect on basal airway responsiveness to inhaled histamine (PC100) [2]: did not affect
